Consider 18 molecules from patent US20070149535A1, “Protein kinase inhibitors” (ONCALIS AG, priority 2004, published 2007).

What all share (assay): Yeast growth assay, specificity profiling
What all share (assay type): cell-based
Set-up in all cases: key: “−” indicates no growth restoration i.e. no activity against the particular kinase; “+”, “++”, and “+++” indicate activity detected by restoration of growth, classified into three categories of potency; “+”, “++”, and “+++” indicate activity detected by restoration of growth, classified into three categories of potency; “+”, “++”, and “+++” indicate activity detected by restoration of growth, classified into three categories of potency
What all share (settings): 7 concentrations between 0.2 and 100 μM

For one assay, the target named is T1, EphB2 (Homo sapiens, UniProt P29323).
T1 construct: expressed in transfected cells; host or cells: yeast
T1 sequence (P29323 19-1055): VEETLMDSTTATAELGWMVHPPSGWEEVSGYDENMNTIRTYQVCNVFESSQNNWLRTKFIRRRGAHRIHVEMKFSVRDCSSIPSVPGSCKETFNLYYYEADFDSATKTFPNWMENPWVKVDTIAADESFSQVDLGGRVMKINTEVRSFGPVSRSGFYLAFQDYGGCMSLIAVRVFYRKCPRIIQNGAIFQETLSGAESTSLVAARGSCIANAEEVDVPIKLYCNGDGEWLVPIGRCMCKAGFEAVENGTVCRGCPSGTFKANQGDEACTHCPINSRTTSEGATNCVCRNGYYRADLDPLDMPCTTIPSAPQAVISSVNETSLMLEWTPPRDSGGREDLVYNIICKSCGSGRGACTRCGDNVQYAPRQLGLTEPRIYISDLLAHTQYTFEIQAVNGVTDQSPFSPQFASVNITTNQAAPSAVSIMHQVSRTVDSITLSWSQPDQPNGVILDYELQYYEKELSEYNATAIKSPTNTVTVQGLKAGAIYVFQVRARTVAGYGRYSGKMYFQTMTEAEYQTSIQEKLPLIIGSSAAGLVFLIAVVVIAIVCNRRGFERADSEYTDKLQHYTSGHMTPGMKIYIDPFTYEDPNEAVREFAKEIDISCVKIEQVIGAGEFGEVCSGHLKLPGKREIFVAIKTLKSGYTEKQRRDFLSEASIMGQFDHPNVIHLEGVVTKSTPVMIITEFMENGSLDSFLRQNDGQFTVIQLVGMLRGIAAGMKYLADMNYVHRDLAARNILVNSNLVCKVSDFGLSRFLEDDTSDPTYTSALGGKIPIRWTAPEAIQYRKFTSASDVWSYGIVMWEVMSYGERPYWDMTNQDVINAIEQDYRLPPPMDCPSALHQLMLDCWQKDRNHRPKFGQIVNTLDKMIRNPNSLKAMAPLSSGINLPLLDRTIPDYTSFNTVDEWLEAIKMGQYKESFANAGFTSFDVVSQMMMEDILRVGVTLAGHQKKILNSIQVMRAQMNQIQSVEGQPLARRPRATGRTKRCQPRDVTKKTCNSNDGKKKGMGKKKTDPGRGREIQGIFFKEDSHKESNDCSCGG
As to the method: (§1) Specificity Profiling: Yeast Growth Assay
(§2) The yeast growth assay was performed as described in “Method for the identification and/or validation of receptor tyrosine kinase inhibitors” PCT/CH03/00694 (2004/10/24), section “Modes for Carrying out the Invention, Experiment 1 and Experiment 2.
(§3) Briefly, yeast cells carrying plasmids with the RTK of interest were grown in glucose containing medium (repressing expression). The cultures were diluted into galactose containing medium, which induces the expression of the kinase. Expression of the kinase inhibits growth of the yeast cells, which allows for positive selection of kinase inhibitors restoring growth of cells. Compounds were titrated at 7 concentrations between 0.2 and 100 μM.
(§4) Specificity profiling of compounds, using the yeast growth assay method described above. “−” indicates no growth restoration i.e. no activity against the particular kinase, “+”, “++”, and “+++” indicate activity detected by restoration of growth, classified into three categories of potency according to the maximal level of growth restoration reached and the concentration at which the maximal growth restoration is reached.

The next assay deals with T2, RET (Homo sapiens, UniProt P07949).
T2 construct: expressed in transfected cells; host or cells: yeast
On the procedure:
as §1, §2, §3, §4

In a further assay the target is T3, TEK (Homo sapiens, UniProt Q02763).
T3 construct: expressed in transfected cells; host or cells: yeast
As to the method:
as §1, §2, §3, §4

The next assay addresses T4, VEGFR2 (Homo sapiens, UniProt P35968).
T4 construct: expressed in transfected cells; host or cells: yeast
On the procedure: as §1, §2, §3, §4

T3 sequence (Q02763 23-1124): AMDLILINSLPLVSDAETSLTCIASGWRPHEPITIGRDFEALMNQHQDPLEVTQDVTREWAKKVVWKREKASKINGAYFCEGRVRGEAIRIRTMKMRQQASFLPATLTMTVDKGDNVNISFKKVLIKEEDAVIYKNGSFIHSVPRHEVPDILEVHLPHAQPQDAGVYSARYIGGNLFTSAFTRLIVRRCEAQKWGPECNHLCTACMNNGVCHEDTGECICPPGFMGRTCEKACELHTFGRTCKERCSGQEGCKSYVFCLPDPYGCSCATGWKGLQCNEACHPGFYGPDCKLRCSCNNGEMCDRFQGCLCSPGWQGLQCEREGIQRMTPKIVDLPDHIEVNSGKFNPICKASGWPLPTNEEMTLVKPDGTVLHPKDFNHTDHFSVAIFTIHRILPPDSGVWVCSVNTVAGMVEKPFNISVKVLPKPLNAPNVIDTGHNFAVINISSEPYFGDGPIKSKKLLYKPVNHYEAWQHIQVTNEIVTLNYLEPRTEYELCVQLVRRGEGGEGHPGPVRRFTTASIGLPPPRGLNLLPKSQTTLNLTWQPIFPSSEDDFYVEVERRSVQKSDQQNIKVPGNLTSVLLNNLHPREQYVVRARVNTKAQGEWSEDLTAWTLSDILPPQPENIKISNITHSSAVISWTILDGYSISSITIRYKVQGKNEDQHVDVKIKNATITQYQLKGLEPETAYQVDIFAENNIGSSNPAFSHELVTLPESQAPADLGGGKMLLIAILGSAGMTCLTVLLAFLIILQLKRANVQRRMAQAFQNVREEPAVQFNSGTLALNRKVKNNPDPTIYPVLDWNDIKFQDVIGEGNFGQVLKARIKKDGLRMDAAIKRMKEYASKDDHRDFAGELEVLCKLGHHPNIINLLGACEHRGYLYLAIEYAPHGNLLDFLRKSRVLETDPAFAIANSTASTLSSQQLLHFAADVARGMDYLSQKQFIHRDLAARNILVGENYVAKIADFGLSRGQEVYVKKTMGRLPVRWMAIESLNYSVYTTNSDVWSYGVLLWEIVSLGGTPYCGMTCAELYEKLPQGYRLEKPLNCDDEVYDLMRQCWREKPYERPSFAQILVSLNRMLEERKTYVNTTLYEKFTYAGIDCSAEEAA
T2 sequence (P07949 29-1114): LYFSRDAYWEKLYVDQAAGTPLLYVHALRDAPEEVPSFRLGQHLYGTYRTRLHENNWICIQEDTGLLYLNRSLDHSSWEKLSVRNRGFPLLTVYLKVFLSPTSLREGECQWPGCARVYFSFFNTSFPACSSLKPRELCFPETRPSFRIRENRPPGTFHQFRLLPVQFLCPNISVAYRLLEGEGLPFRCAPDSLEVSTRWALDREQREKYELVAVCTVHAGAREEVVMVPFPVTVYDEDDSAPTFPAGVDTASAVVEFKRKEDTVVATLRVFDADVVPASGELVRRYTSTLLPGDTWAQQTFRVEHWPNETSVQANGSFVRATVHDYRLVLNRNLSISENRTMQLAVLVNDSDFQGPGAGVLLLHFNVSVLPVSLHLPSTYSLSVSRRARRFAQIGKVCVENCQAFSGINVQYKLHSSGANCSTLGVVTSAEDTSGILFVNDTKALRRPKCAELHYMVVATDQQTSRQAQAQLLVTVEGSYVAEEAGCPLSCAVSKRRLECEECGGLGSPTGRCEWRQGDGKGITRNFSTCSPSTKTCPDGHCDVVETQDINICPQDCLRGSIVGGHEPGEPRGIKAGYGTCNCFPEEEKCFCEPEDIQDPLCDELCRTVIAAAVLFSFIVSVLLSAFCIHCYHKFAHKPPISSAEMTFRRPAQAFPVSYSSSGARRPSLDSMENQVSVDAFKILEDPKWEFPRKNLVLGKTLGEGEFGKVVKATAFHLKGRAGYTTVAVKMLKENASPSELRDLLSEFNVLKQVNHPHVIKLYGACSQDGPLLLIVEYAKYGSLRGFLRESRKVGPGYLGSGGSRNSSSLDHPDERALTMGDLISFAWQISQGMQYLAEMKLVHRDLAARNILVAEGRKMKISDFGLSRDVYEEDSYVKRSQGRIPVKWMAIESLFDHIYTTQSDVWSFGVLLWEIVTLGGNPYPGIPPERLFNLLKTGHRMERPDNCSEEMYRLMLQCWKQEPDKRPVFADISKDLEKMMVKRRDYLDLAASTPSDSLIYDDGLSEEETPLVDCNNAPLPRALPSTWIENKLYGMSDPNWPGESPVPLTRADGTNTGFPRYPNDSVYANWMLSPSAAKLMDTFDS
T4 sequence (P35968 20-1356): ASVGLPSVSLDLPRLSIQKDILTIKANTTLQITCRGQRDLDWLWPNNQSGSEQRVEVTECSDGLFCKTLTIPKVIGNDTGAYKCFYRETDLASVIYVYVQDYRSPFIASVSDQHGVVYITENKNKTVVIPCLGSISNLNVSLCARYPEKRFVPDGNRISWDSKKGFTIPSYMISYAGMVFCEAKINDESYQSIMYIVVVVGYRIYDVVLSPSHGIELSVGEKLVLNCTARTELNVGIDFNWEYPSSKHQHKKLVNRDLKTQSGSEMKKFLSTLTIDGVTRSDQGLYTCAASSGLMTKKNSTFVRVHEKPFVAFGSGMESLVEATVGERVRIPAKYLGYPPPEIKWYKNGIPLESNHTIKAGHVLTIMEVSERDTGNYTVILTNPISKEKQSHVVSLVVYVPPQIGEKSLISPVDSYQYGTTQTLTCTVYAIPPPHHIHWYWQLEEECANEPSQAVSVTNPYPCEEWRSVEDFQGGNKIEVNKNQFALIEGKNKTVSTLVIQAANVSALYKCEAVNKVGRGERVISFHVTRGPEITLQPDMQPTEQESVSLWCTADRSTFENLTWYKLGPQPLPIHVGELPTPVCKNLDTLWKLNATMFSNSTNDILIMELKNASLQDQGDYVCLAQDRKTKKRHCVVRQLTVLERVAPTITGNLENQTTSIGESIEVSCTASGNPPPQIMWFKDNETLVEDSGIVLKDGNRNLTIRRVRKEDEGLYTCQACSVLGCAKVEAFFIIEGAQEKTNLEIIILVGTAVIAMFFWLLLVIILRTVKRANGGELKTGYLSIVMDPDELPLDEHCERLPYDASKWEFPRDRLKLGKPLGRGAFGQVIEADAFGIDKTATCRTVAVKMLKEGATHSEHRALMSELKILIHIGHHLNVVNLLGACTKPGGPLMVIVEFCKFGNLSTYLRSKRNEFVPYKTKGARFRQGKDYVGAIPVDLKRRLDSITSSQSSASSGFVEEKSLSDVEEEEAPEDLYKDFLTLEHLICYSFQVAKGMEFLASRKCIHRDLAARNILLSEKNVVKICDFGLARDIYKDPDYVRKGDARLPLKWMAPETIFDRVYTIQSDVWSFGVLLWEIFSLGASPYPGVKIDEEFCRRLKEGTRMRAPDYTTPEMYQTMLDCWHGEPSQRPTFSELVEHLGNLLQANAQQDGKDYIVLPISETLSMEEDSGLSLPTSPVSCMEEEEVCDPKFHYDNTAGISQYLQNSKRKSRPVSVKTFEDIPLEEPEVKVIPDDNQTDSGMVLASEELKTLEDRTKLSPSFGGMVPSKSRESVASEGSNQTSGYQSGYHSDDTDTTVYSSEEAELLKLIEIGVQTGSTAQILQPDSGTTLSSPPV

Turning to `Cc1nccn2c(Nc3cccc(Cl)c3)c(-c3ccccc3)nc12` [compound 3, (3-Chloro-phenyl)-(8-methyl-2-phenyl-imidazo[1,2-a]pyrazin-3-yl)-amine], the EphB2 growth restoration entry on EphB2 is given as “++”. For the same molecule, at RET, the RET growth restoration result is “−”. For the same molecule, the TEK growth restoration entry on TEK is given as “−”. In addition, at VEGFR2, the VEGFR2 growth restoration entry is “−”.
Consider `COc1cccc(-c2nc3cnccn3c2Nc2cccc(Cl)c2)c1` [compound 7, (3-Chloro-phenyl)-[2-(3-methoxy-phenyl)-imidazo[1,2-a]pyrazin-3-yl]-amine], for which, on EphB2, the EphB2 growth restoration result is recorded as “−”. Besides, at RET, the RET growth restoration result is “+ −”. Moreover, the TEK growth restoration result at TEK was “−”. At VEGFR2, the VEGFR2 growth restoration entry is recorded as “−”.
In the case of `CC(=O)Nc1ccc(-c2nc3cnccn3c2Nc2cccc(Cl)c2)cc1` [compound 8, N-{4-[3-(3-Chloro-phenylamino)-imidazo[1,2-a]pyrazin-2-yl]-phenyl}-acetamide], the EphB2 growth restoration entry on EphB2 is given as “++”. Also, the RET growth restoration entry at RET was “−”. For the same molecule, at TEK, the TEK growth restoration entry is on record as “−”. Also, the VEGFR2 growth restoration entry at VEGFR2 is reported as “−”.
As for `Nc1ccc(-c2nc3cnccn3c2Nc2cccc(Cl)c2)cc1` [compound 10, [2-(4-Amino-phenyl)-imidazo[1,2-a]pyrazin-3-yl]-(3-chloro-phenyl)-amine], the EphB2 growth restoration entry at EphB2 was “++”. The RET growth restoration result on RET was “−”. For the same molecule, the TEK growth restoration entry at TEK is listed as “−”. Also, the VEGFR2 growth restoration result on VEGFR2 is given as “−”.
Take `CC(C)c1nc2cnccn2c1Nc1cccc(Cl)c1` [compound 12, (3-Chloro-phenyl)-(2-isopropyl-imidazo[1,2-a]pyrazin-3-yl)-amine]: the EphB2 growth restoration result on EphB2 is recorded as “+”. For the same molecule, the RET growth restoration result at RET is given as “−”. The TEK growth restoration entry on TEK was “−”. Also, the VEGFR2 growth restoration entry on VEGFR2 was “−”.
Turning to `Brc1cccc(Nc2c(-c3ccccc3)nc3cnccn23)c1` [compound 14, (3-Bromo-phenyl)-(2-phenyl-imidazo[1,2-a]pyrazin-3-yl)-amine], the EphB2 growth restoration entry at EphB2 is listed as “−”. Also, on RET, the RET growth restoration result is reported as “−”. Also, on TEK, the TEK growth restoration entry is reported as “−”. For the same molecule, the VEGFR2 growth restoration entry on VEGFR2 is reported as “−”.
As for `Clc1ccc(Nc2c(-c3ccccc3)nc3cnccn23)cc1` [compound 16, (4-Chloro-phenyl)-(2-phenyl-imidazo[1,2-a]pyrazin-3-yl)-amine], on EphB2, the EphB2 growth restoration result is on record as “−”. Besides, the RET growth restoration entry at RET is “+”. For the same molecule, the TEK growth restoration result at TEK is on record as “−”. The VEGFR2 growth restoration result on VEGFR2 is reported as “−”.
For the molecule `CNc1nccn2c(Nc3cccc(Cl)c3)c(-c3ccccc3)nc12` [compound 20, N′3-(3-Chloro-phenyl)-N′8-methyl-2-phenyl-imidazo[1,2-a]pyrazine-3,8-diamine], the EphB2 growth restoration result at EphB2 is listed as “−”. Further, on RET, the RET growth restoration result is on record as “−”. Moreover, the TEK growth restoration result on TEK is given as “−”. Besides, the VEGFR2 growth restoration entry at VEGFR2 was “−”.
`c1ccc(Nc2c(-c3ccccc3)nc3cnccn23)cc1` [compound 23, Phenyl-(2-phenyl-imidazo[1,2-a]pyrazin-3-yl)-amine]: at EphB2, the EphB2 growth restoration entry is “++”. At RET, the RET growth restoration entry is reported as “+”. Further, the TEK growth restoration result on TEK is recorded as “−”. In addition, the VEGFR2 growth restoration entry on VEGFR2 is “−”.
On to `Fc1cccc(Nc2c(-c3ccccc3)nc3cnccn23)c1` [compound 26, (3-Fluoro-phenyl)-(2-phenyl-imidazo[1,2-a]pyrazin-3-yl)-amine], for which the EphB2 growth restoration result on EphB2 is listed as “+”. In addition, the RET growth restoration result on RET is given as “−”. Moreover, the TEK growth restoration result on TEK is recorded as “−”. Further, at VEGFR2, the VEGFR2 growth restoration result is reported as “−”.
For `Fc1ccc(Nc2c(-c3ccccc3)nc3cnccn23)cc1F` [compound 30, (3,4-Difluoro-phenyl)-(2-phenyl-imidazo[1,2-a]pyrazin-3-yl)-amine], at EphB2, the EphB2 growth restoration result is listed as “+”. Moreover, the RET growth restoration result on RET is “−”. Also, the TEK growth restoration result at TEK was “−”. Further, the VEGFR2 growth restoration entry on VEGFR2 was “−”.
Regarding `CC(=O)Nc1ccc(-c2nc3c(C)nccn3c2Nc2cccc(Cl)c2)cc1` [compound 33, N-{4-[3-(3-Chloro-phenylamino)-8-methyl-imidazo[1,2-a]pyrazin-2-yl]-phenyl}-acetamide], the EphB2 growth restoration entry at EphB2 is reported as “+++”. Besides, at RET, the RET growth restoration result was “−”. In addition, the TEK growth restoration entry on TEK is on record as “−”. Also, the VEGFR2 growth restoration result on VEGFR2 is “−”.
On to `Cc1cccc(Nc2c(-c3ccccc3)nc3cnccn23)c1` [compound 34, (2-Phenyl-imidazo[1,2-a]pyrazin-3-yl)-m-tolyl-amine], for which, on EphB2, the EphB2 growth restoration entry was “−”. The RET growth restoration result on RET is recorded as “−”. Also, the TEK growth restoration entry on TEK was “−”. The VEGFR2 growth restoration result at VEGFR2 is recorded as “−”.
For the molecule `Clc1cccc(Nc2c(-c3ccccc3)nc3cnccn23)c1` [compound 35, (3-Chloro-phenyl)-(2-phenyl-imidazo[1,2-a]pyrazin-3-yl)-amine], at EphB2, the EphB2 growth restoration entry is reported as “−”. The RET growth restoration result at RET is recorded as “+”. Also, the TEK growth restoration result at TEK is “−”. Also, at VEGFR2, the VEGFR2 growth restoration result is reported as “−”.
As to `c1ccc(Nc2c(-c3ccc(N4CCOCC4)cc3)nc3cnccn23)cc1` [compound 38, [2-(4-Morpholin-4-yl-phenyl)-imidazo[1,2-a]pyrazin-3-yl]-phenyl-amine], the EphB2 growth restoration entry on EphB2 is on record as “++”. In addition, on RET, the RET growth restoration result is on record as “−”. For the same molecule, on TEK, the TEK growth restoration result was “−”. Moreover, on VEGFR2, the VEGFR2 growth restoration entry is “−”.
On to `Cc1nccn2c(Nc3ccccc3)c(-c3ccccc3)nc12` [compound 39, (8-Methyl-2-phenyl-imidazo[1,2-a]pyrazin-3-yl)-phenyl-amine], for which the EphB2 growth restoration entry on EphB2 was “+++”. On RET, the RET growth restoration result is reported as “+”. Moreover, the TEK growth restoration entry on TEK is reported as “−”. Further, the VEGFR2 growth restoration entry at VEGFR2 is “−”.
Regarding `COc1cccc(-c2nc3c(C)nccn3c2Nc2cccc(C)c2)c1` [compound 42, [2-(3-Methoxy-phenyl)-8-methyl-imidazo[1,2-a]pyrazin-3-yl]-m-tolyl-amine], the EphB2 growth restoration result at EphB2 is “+++”. Besides, the RET growth restoration entry at RET is on record as “−”. The TEK growth restoration result at TEK is “−”. Besides, at VEGFR2, the VEGFR2 growth restoration result is on record as “−”.
For the molecule `Cc1cccc(Nc2c(-c3ccccc3)nc3c(C)nccn23)c1` [compound 43, (8-Methyl-2-phenyl-imidazo[1,2-a]pyrazin-3-yl)-m-tolyl-amine], the EphB2 growth restoration result on EphB2 is reported as “++”. Besides, the RET growth restoration entry at RET was “−”. In addition, the TEK growth restoration entry on TEK is reported as “−”. Besides, the VEGFR2 growth restoration entry at VEGFR2 is listed as “−”.
